# Measurements: patent US7939712B2, “Method to alleviate abiotic stress in plants by expression of mitochondrial-targeted purple acid phosphatase” (The Chinese University of Hong Kong, priority 2006, dated 2011)
# Marks after values point to notes of the source that are not given here.
# Tested on: BY-2 cells
# Assay: Analysis of mitochondria integrity (Rh123 staining) under NaCl or PEG stress
# Type: cell-based, tobacco
# Conditions: wild type BY-2 + 10 mM ascorbic acid
# Protocol: Cells were treated with 200 mM NaCl for 1 h or 2% PEG for 1 h before staining with 10 μg/ml rhodamine-123 (Rh123) (R302, Molecular Probes) for 1 h. The signal of Rh123 was excited by green HeNe laser at 543 nm. The filter set HQ590/70 was used and confocal images were collected by the Bio-Rad Radiance 2100 system. 10-25 cells were counted for each sample for statistical analysis.
# Transgenic BY-2 cell lines prepared as in Example 1 were cultured to express the GmPAP3 protein and subjected to treatment with sodium chloride or polyethylene glycol (PEG, osmotic stress) as explained above and in the description of the results as shown in FIGS. 3A-3L. The results on mitochondrial integrity were compared with the effect of the presence of ascorbic acid. The results are shown in the table below which summarizes the data in FIGS. 3A-3L. The data are the results of counting 10-25 cells and the experiment repeated 3 times. The percentage was presented as the mean value of 3 experiments±SD, where ** denotes statistical difference (p<0.01) from the wild type BY-2 cells under the same treatment, based on one-way ANOVA followed by the Turkey test.
# Wild type (WT) BY-2 cells (FIGS. 3A-3C) and GmPAP3 transgenic BY-2 cell lines #20 and #29 (FIGS. 3G-3I and FIGS. 3J-3L, respectively) without ascorbic acid supplements and wild type BY-2 cells with 10 mM ascorbic acid supplements (+Asc) (FIGS. 3D-3F) were pre-treated in a cell culture medium without stress (FIGS. 3A, 3D, 3G and 3J), with 200 mM NaCl for 1 hr (FIGS. 3B, 3E, 3H and 3K), or with 2% PEG for 1 h (FIGS. 3C, 3F, 3I, 3L) before staining with 10 μg/mL Rh123 for another hour. The signal of Rh123 was observed using a confocal laser scanning microscope (see materials and methods). 10-25 cells were counted for each line. Scale bar=50 μm.
structure (smiles),measurement,setting,value
O=C1O[C@H]([C@@H](O)CO)C(O)=C1O [ascorbic acid],"% cells with intact mitochondria, NaCl","200 mM NaCl 1 h, mean of 3 experiments ± SD",86.20 ± 3.3** %
same,"% cells with intact mitochondria, PEG","2% PEG 1 h, mean of 3 experiments ± SD",82.16 ± 3.7** %
same,"% cells with intact mitochondria, Control",medium without stress,100%
